Measured values as given in patent US12319651B2, “Crystalline forms and methods of producing crystalline forms of a compound” (priority 2019, dated 2025).

Legend:
[1] = Measurement of the approximate solubility (visual dissolution in solvent aliquots); type: physicochemical; settings: thermodynamic from solid
Description: Aliquots of various solvents were added to measured amounts of compound with agitation (typically sonication) at ambient or elevated temperatures until complete dissolution was achieved, as judged by visual observation.
The approximate solubility at ambient temperature must be known in order to carry out systematic crystallization experiments.

[2] = Dynamic vapor sorption (moisture sorption/desorption); type: physicochemical; settings: for Hygroscopicity: automated vapor sorption/desorption analysis, 5% to 95% RH
Description: Moisture sorption/desorption data were collected on a VTI SGA-100 Vapor Sorption Analyzer. Sorption and desorption data were collected over a range of 5% to 95% relative humidity (RH) at 10% RH intervals under an nitrogen purge. Samples were not dried prior to analysis. Equilibrium criteria used for analysis were less than 0.0100% weight change in 5 minutes, with a maximum equilibration time of 3 hours if the weight criterion was not met. Data were not corrected for the initial moisture content of the samples. NaCl and PVP were used as calibration standards.

[3] = Interconversion slurries of crystal forms; type: physicochemical; settings: for Relationship of forms C and E: from DSC data and interconversion results, transition temperature less than ambient
Text: Crystal forms of the compound of Formula (I) were weighed out in approximately equal amounts and combined as desired. Aliquots of saturated solutions of compound in various solvents were filtered (0.2-μm nylon filter) into vials containing solid mixtures such that undissolved solids were present. The mixture was then agitated by either loading it onto an orbit shaker or adding a cross-shaped stir bar and allowing the mixture to stir in a sealed vial at stated conditions. The solids were isolated by vacuum filtration and analyzed.
Interconversion slurries were conducted as individual pairings between the E+C mixture and Form E material and between forms C and E. The experiments were carried out in cyclohexane and acetone:water 20:80, at room temperature for 7 days. Additional slurries were set up in toluene at room temperature for 1 day and at approximately 5° C. for 2 days.
A second set of interconversion slurries was conducted in which all unique patterns were slurried together at 50° C. in cyclohexane and ethanol:water 50:50. […]

[4] = type: physicochemical
Description: The starting crystal Form was heated to 120° C. and the resulting material was analyzed by XRPD.
The XRPD results of crystalline Form E (FIG. 2) show good crystallinity. […] (FIG. 6). […] The XRPD results of crystalline Forms E+C (FIG. 3) show good crystallinity. Differential scanning calorimetry results for crystalline Forms E+C were very similar to that of Form E (FIG. 7). […] Form conversion was complete by 125° C. in the solid state.

Question: Which solubility ([1]; aqueous with cosolvent or surfactant or cyclodextrin, ambient, 1,4-dioxane/water 20:80 v/v) does the source give for `N#Cc1ccc(N2CCC[C@@H]2C(O)C(F)(F)F)cc1C(F)(F)F` (stereo partly drawn) [Compound of Formula (I)] here?
Answer: The solubility was < 2 mg/mL.

Question: What about the solubility ([1]; aqueous with cosolvent or surfactant or cyclodextrin, ambient, 1-propanol/water 20:80 v/v) of the same compound?
Answer: The solubility was < 2 mg/mL.

Question: What about the solubility ([1]; aqueous with cosolvent or surfactant or cyclodextrin, ambient, 2,2,2-trifluoroethanol/water 20:80 v/v) of the same compound?
Answer: The solubility was < 2 mg/mL.

Question: And the solubility ([1]; aqueous with cosolvent or surfactant or cyclodextrin, ambient, acetone/water 20:80 v/v)?
Answer: The solubility was < 2 mg/mL.

Question: And the solubility ([1]; aqueous with cosolvent or surfactant or cyclodextrin, ambient, acetone/water 50:50 v/v)?
Answer: The solubility was 9 mg/mL.

Question: What about the solubility ([1]; aqueous with cosolvent or surfactant or cyclodextrin, ambient, acetonitrile/water 20:80 v/v) of the same compound?
Answer: The solubility was < 2 mg/mL.

Question: What about the solubility ([1]; aqueous with cosolvent or surfactant or cyclodextrin, ambient, ethanol/water 20:80 v/v) of the same compound?
Answer: The solubility was < 2 mg/mL.

Question: What about the solubility ([1]; aqueous with cosolvent or surfactant or cyclodextrin, ambient, hexafluoroisopropanol/water 20:80 v/v) of the same compound?
Answer: The solubility was < 2 mg/mL.

Question: What about the solubility ([1]; aqueous with cosolvent or surfactant or cyclodextrin, ambient, isopropanol/water 20:80 v/v) of the same compound?
Answer: The solubility was < 2 mg/mL.

Question: What about the solubility ([1]; aqueous with cosolvent or surfactant or cyclodextrin, ambient, methanol/water 20:80 v/v) of the same compound?
Answer: The solubility was < 2 mg/mL.

Question: What about the solubility ([1]; aqueous with cosolvent or surfactant or cyclodextrin, ambient, tetrahydrofuran/water 20:80 v/v) of the same compound?
Answer: The solubility was < 2 mg/mL.

Question: What about the solubility ([1]; organic solvent or mixture, ambient, 1,4-dioxane) of the same compound?
Answer: Its solubility is > 111 mg/mL.

Question: And the solubility ([1]; organic solvent or mixture, ambient, 1-butanol)?
Answer: Its solubility is 37 mg/mL.

Question: And the solubility ([1]; organic solvent or mixture, ambient, 1-propanol)?
Answer: Its solubility is 55 mg/mL.

Question: What about the solubility ([1]; organic solvent or mixture, ambient, 2,2,2-trifluoroethanol) of the same compound?
Answer: Its solubility is 51 mg/mL.

Question: What about the solubility ([1]; organic solvent or mixture, ambient, 2-butanone) of the same compound?
Answer: The solubility was > 107 mg/mL.

Question: And the solubility ([1]; organic solvent or mixture, ambient, acetone)?
Answer: The solubility was > 112 mg/mL.

Question: What about the solubility ([1]; organic solvent or mixture, ambient, acetonitrile) of the same compound?
Answer: The solubility was > 110 mg/mL.

Question: And the solubility ([1]; organic solvent or mixture, ambient, chloroform)?
Answer: The solubility was 37 mg/mL.

Question: And the solubility ([1]; organic solvent or mixture, ambient, cyclohexane)?
Answer: The solubility was < 2 mg/mL.

Question: What about the solubility ([1]; organic solvent or mixture, ambient, dichloromethane) of the same compound?
Answer: The solubility was 37 mg/mL.

Question: And the solubility ([1]; organic solvent or mixture, ambient, diethyl ether)?
Answer: Its solubility is 58 mg/mL.

Question: What about the solubility ([1]; organic solvent or mixture, ambient, ethanol) of the same compound?
Answer: Its solubility is > 104 mg/mL.

Question: What about the solubility ([1]; organic solvent or mixture, ambient, ethyl acetate) of the same compound?
Answer: The solubility was > 108 mg/mL.

Question: What about the solubility ([1]; organic solvent or mixture, ambient, hexafluoroisopropanol) of the same compound?
Answer: The solubility was > 106 mg/mL.

Question: And the solubility ([1]; organic solvent or mixture, ambient, hexanes)?
Answer: Its solubility is < 2 mg/mL.

Question: What about the solubility ([1]; organic solvent or mixture, ambient, isopropanol) of the same compound?
Answer: Its solubility is > 102 mg/mL.

Question: And the solubility ([1]; organic solvent or mixture, ambient, isopropyl ether)?
Answer: Its solubility is 55 mg/mL.

Question: What about the solubility ([1]; organic solvent or mixture, ambient, methanol) of the same compound?
Answer: Its solubility is > 116 mg/mL.

Question: What about the solubility ([1]; organic solvent or mixture, ambient, methyl isobutyl ketone) of the same compound?
Answer: Its solubility is > 100 mg/mL.

Question: What about the solubility ([1]; organic solvent or mixture, ambient, tert-butyl methyl ether) of the same compound?
Answer: The solubility was > 111 mg/mL.

Question: What about the solubility ([1]; organic solvent or mixture, ambient, tetrahydrofuran) of the same compound?
Answer: The solubility was > 102 mg/mL.

Question: What about the solubility ([1]; organic solvent or mixture, ambient, toluene) of the same compound?
Answer: The solubility was 15 mg/mL.

Question: What about the solubility ([1]; ambient, water) of the same compound?
Answer: The solubility was < 2 mg/mL.

Question: Which results are given for `N#Cc1ccc(N2CCC[C@@H]2C(O)C(F)(F)F)cc1C(F)(F)F` (stereo partly drawn) [Form E]?
Answer: Stability over humidity [2]: stable over a wide range of humidity; Hygroscopicity [2]: slightly hygroscopic; Relationship of forms C and E [3]: enantiotropic; Most stable form in slurry ([3]; toluene at approximately 5° C.): most stable form; Temperature at which form conversion was complete ([4]; VT-XRPD, solid state): ≤ 125 °C; Temperature of conversion to Form C upon heating ([4]; VT-XRPD, mixture of forms E+C observed at this temperature): 115 °C

Question: For `N#Cc1ccc(N2CCC[C@@H]2C(O)C(F)(F)F)cc1C(F)(F)F` (stereo partly drawn) [Form B], which Hydrate formation [2] is on record?
Answer: The Hydrate formation was “does not show any evidence of hydrate formation”.

Question: And the Stability over humidity [2]?
Answer: The Stability over humidity was “stable over a wide range of humidity”.

Question: And the “Temperature of likely form transformation upon heating” value [4]?
Answer: Its value is “approximately 150 °C”.

Question: What does the source list for `N#Cc1ccc(N2CCC[C@@H]2C(O)C(F)(F)F)cc1C(F)(F)F` (stereo partly drawn) [Form E + C]?
Answer: Hygroscopicity ([2]; listed as E+C mixture): slightly hygroscopic; XRPD Result after heating ([4]; heated to 120° C.): Form C

Question: What does the source list for `N#Cc1ccc(N2CCC[C@@H]2C(O)C(F)(F)F)cc1C(F)(F)F` (stereo partly drawn) [Form C]?
Answer: Hydrate formation [2]: does not show any evidence of hydrate formation; Stability over humidity [2]: stable over a wide range of humidity; Water uptake ([2]; DVS, FIG. 9): negligible water uptake; Hygroscopicity [2]: non-hygroscopic; Most stable form in slurry of all forms ([3]; 50° C., 7 days, cyclohexane and ethanol:water 50:50): most stable form; Thermodynamic stability among crystal forms ([3]; cyclohexane, acetone:water 20:80, toluene at ambient temperature, ethanol:water 50:50 at approximately 50° C.): most thermodynamically stable form; Relationship of forms C and E [3]: enantiotropic; Form stability upon heating and cooling ([4]; heating to 150° C. and cooling down to ambient temperature): remained stable; Relative thermodynamic stability from heating study ([4]; starting crystal form heated to 120° C., XRPD): thermodynamically more stable crystal form
